In patent US5413787A, “Bioparyl, a biological regulator, active against various pathologies” (priority 1988, dated 1995):

Experiments:
[1] = system: RNases from patients affected by cancers, auto-immune diseases or viral pathologies; experiment: Effect of iron on in vitro activity of RNases from patients; type: biochemical, human; details: cancers (leukemia, solid cancers)
Experimental: (§1) Bioparyl dissolved in distilled water (pH 7.0, 5 mg/ml) is used (0.01 to 0.05 ml). Incubation medium (0.15 ml final volume) contains: Tris-HCl buffer, 10^-2 M pH 7.60: 0.05 ml; ^3 H-RNA (r-RNA or 4 S RNA), 100 μg, 15,000 CPM: 0.05 ml; ten-times diluted plasma: 0.01 to 0.05 ml. After incubation at 36° C. for 10 min. (water bath) (generally necessary conditions but that may vary in case of necessity), the reaction is stopped by addition of 3 ml trichloroacetic acid (TCA) (5%); the tubes are cooled in order to assure a good precipitation of proteins and undegraded ^3 H-RNA.
(§2) The precipitate is filtered on glass millipore (GF/C, Whatman), washed with 5% TCA solution then with 95° ethyl alcohol. The filters are dried and the radioactivity determined in a scintillation spectrometer. The results are expressed as percent of non-degraded radioactive RNA, the radioactivity of initial intact RNA being taken as 100%.
(§3) One knows that the RNases enable the furnishing of the RNA primers necessary for the replication of DNA, and that the primers accepted by DNA from healthy tissues are not the same as the primers required for replication of DNA from cancer tissues. Thus, regulation of RNases (enzymes able to provide primers in cells)is a capital phenomenon in carcinology and virology.

[2] = system: RNases in plasma of healthy persons; experiment: Effect of iron on in vitro activity of RNases of healthy persons; type: biochemical, human; details: FIG. 5
Experimental: as §1, §2, §3

[3] = system: RNases from human fibrosis skin; experiment: In vitro RNase activity of radiation-induced skin fibrosis extract (r-RNA degradation); type: biochemical; details: FIG. 7
Experimental: Sample of skin fibrosis induced by radiation has been broken in a mortar (4° C.) in the presence of Tris-HCl buffer 0.02M containing 0.06M KCl and 0.001M MgCl2. Final volume: 1.5 ml. The activity of RNases present in this extract has been tested with 4 S RNA and ribosomal RNA (r-RNA); 0.01; 0.02; 0.03 and 0.04 ml of enzyme extract were incubated in the presence of radioactive ^3 H-r-RNA or ^3 H-4 S RNA. Incubation time: 15 min. at 36° C. The results are illustrated in FIG. 7. Degradation of labelled RNA is linear in function of increasing concentration of the extract. r-RNA is more rapidly degraded than 4 S RNA. […] Ferric iron (FeCl3), at low concentrations, stimulates r-RNA degradation; but at higher concentrations it inhibits it.

[Cl][Fe]([Cl])[Cl] [Ferric iron]
in vitro activity of RNases from patients under ferric iron [1]: strongly accelerates
in vitro activity of RNases of healthy persons under iron [2]: without effect
r-RNA degradation by fibrosis skin RNases, FeCl3 higher concentrations ([3]; at higher concentrations): inhibits
r-RNA degradation by fibrosis skin RNases, FeCl3 low concentrations ([3]; at low concentrations): stimulates
